Assay results from patent US9096560B2, “5-heterocyclylalkyl-3-hydroxy-2-phenylcyclopent-2-enones as herbicides” (Syngenta Limited, priority 2008, dated 2015).

Key:
Type in all cases: in vivo
[1] = tested on: Echinochloa crus-galli (ECHCG); assay: Example B post-emergence herbicidal test, ECHCG; conditions: Echinochloa crus-galli, 312 h, rate 250 g/ha, evaluated after 13 days, scale 0-100, read-out: Post-emergence activity ECHCG (100=total damage to plant; 0=no damage to plant)
How it was run: (§1)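 Damage was rated visually 13 days after treatment, where 100 meant total plant damage and 0 none. Treatment was a spray of aqueous solution (acetone/water 50:50, 0.5% Tween 20) applied to plants cultivated 8 days from seed under controlled glasshouse conditions.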

[2] = tested on: Alopecurus myosuroides (ALOMY); assay: Example A post-emergence herbicidal test, ALOMY; conditions: rate 250 g/ha, evaluated 14 or 15 days after spraying
Method: (§2) Seeds of a variety of test species were sown in standard soil in pots. After cultivation for one day (pre-emergence) or after 10 days cultivation (post-emergence) under controlled conditions in a glasshouse, the plants were sprayed with an aqueous spray solution derived from the formulation of the technical active ingredient in 0.6 ml acetone and 45 ml formulation solution containing 10.6% Emulsogen EL (Registry number 61791-12-6), 42.2% N-methylpyrrolidone, 42.2% dipropylene glycol monomethyl ether (Registry number 34590-94-8) and 0.2% X-77 (Registry number 11097-66-8). The test plants were then grown in a greenhouse under optimum conditions until, 14 or 15 days later for post-emergence and 19 or 20 days for pre-emergence, the test was evaluated (100=total damage to plant; 0=no damage to plant). Alopecurus myosuroides (ALOMY), Avena fatua (AVEFA), Lolium perenne (LOLPE), Setaria faberi (SETFA), Digitaria sanguinalis (DIGSA), Echinochloa crus-galli (ECHCG) Post-Emergence Activity

Setaria faberi (SETFA) = assay: Example A post-emergence herbicidal test, SETFA; conditions: rate 250 g/ha, evaluated 14 or 15 days after spraying
Method: as §2

Avena fatua (AVEFA) [3] = assay: Example B post-emergence herbicidal test, AVEFA; conditions: Avena fatua, 312 h, rate 250 g/ha, evaluated after 13 days, scale 0-100, read-out: Post-emergence activity AVEFA (100=total damage to plant; 0=no damage to plant)
How it was run: as §1

[4] = tested on: Winter Wheat variety 'Hereward' seed treated with cloquintocet mexyl; assay: Example C crop damage test on Winter Wheat seed treated with safener cloquintocet mexyl, post-emergence; conditions: rate 250 g/ha, seed treated with cloquintocet mexyl 0.5 grams per kilogram of dry seed, evaluated after 13 days
Method: Seeds of the Winter Wheat variety ‘Hereward’ were seed treated with a wettable powder formulation of the cereal herbicide safener, cloquintocet mexyl, at a rate of 0.5 grams per kilogram of dry seed prior to the initiation of glasshouse testing. One seed was sown per 1.5 inch plastic pot into a sandy loam soil at a depth of 1 cm, 8 days prior to application of the test compounds and was watered and grown under controlled conditions in a glasshouse (at 24/16° C., day/night; 14 hours light; 65% humidity). The plants were sprayed Post-emergence with an aqueous spray solution derived from the formulation of the technical active ingredient in acetone/water (50:50) solution containing 0.5% Tween 20 (polyoxyethelyene sorbitan monolaurate, CAS RN 9005-64-5). The test plants were then grown in a glasshouse under controlled conditions in a glasshouse (at 24/16° C., day/night; 14 hours light; 65% humidity) and watered twice daily. After 13 days for pre and post-emergence, the test was evaluated (100=total damage to plant; 0=no damage to plant).

Lolium perenne (LOLPE) [5] = assay: Example A post-emergence herbicidal test, LOLPE; conditions: rate 250 g/ha, evaluated 14 or 15 days after spraying
Method: as §2

[6] = tested on: Winter Wheat variety 'Hereward'; assay: Example C crop damage test on Winter Wheat, post-emergence, no safener; conditions: Triticum aestivum, 312 h, rate 250 g/ha, evaluated after 13 days, read-out: Winter Wheat (Hereward) damage (100=total damage to plant; 0=no damage to plant)
Method: Seeds of the Winter Wheat variety ‘Hereward’ were sown in standard soil in pots. After 8 days cultivation under controlled conditions in a glasshouse (at 24/16° C., day/night; 14 hours light; 65% humidity), the plants were sprayed with an aqueous spray solution derived from the formulation of the technical active ingredient in acetone/water (50:50) solution containing 0.5% Tween 20 (polyoxyethelyene sorbitan monolaurate, CAS RN 9005-64-5). The test plants were then grown in a glasshouse under controlled conditions in a glasshouse (at 24/16° C., day/night; 14 hours light; 65% humidity) and watered twice daily. After 13 days for pre and post-emergence, the test was evaluated (100=total damage to plant; 0=no damage to plant).

[7] = tested on: Alopecurus myosuroides (ALOMY); assay: Example B pre-emergence herbicidal test, ALOMY; conditions: Alopecurus myosuroides, 312 h, rate 250 g/ha, evaluated after 13 days, 100=total damage to plant, 0=no damage to plant
How it was run: (§3)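 Plants were rated 13 days after treatment, 0 = no damage to 100 = total damage. They were grown in a glasshouse at 24/16 °C, 14 h light, 65% humidity and watered twice daily. Pre-emergence spray was applied one day after sowing, formulated in acetone/water 50:50 with 0.5% Tween 20.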

Avena fatua (AVEFA) [8] = assay: Example B pre-emergence herbicidal test, AVEFA; conditions: Avena fatua, 312 h, rate 250 g/ha, evaluated after 13 days, 100=total damage to plant, 0=no damage to plant
How it was run: as §3

Avena fatua (AVEFA) [9] = assay: Example A post-emergence herbicidal test, AVEFA; conditions: rate 250 g/ha, evaluated 14 or 15 days after spraying
Method: as §2

Lolium perenne (LOLPE) [10] = assay: Example B post-emergence herbicidal test, LOLPE; conditions: Lolium perenne, 312 h, rate 250 g/ha, evaluated after 13 days, scale 0-100, read-out: Post-emergence activity LOLPE (100=total damage to plant; 0=no damage to plant)
How it was run: as §1

[11] = tested on: Digitaria sanguinalis (DIGSA); assay: Example A post-emergence herbicidal test, DIGSA; conditions: rate 250 g/ha, evaluated 14 or 15 days after spraying
Method: as §2

Lolium perenne (LOLPE) [12] = assay: Example B pre-emergence herbicidal test, LOLPE; conditions: Lolium perenne, 312 h, rate 250 g/ha, evaluated after 13 days, 100=total damage to plant, 0=no damage to plant
How it was run: as §3

[13] = tested on: Echinochloa crus-galli (ECHCG); assay: Example B pre-emergence herbicidal test, ECHCG; conditions: Echinochloa crus-galli, 312 h, rate 250 g/ha, evaluated after 13 days, 100=total damage to plant, 0=no damage to plant
How it was run: as §3

[14] = tested on: Alopecurus myosuroides (ALOMY); assay: Example B post-emergence herbicidal test, ALOMY; conditions: Alopecurus myosuroides, 312 h, rate 250 g/ha, evaluated after 13 days, scale 0-100, read-out: Post-emergence activity ALOMY (100=total damage to plant; 0=no damage to plant)
How it was run: as §1

[15] = tested on: Echinochloa crus-galli (ECHCG); assay: Example A post-emergence herbicidal test, ECHCG; conditions: rate 250 g/ha, evaluated 14 or 15 days after spraying
Method: as §2

| Compound | pest or weed control at 250 g/ha [1] | Post-Emergence Activity ALOMY (100=total damage to plant; 0=no damage to plant) [2] | Post-Emergence Activity SETFA (100=total damage to plant; 0=no damage to plant) (Setaria faberi (SETFA)) | pest or weed control at 250 g/ha (Avena fatua (AVEFA) [3]) | Winter Wheat (Hereward) + cloquintocet mexyl damage (100=total damage to plant; 0=no damage to plant) [4] | Post-Emergence Activity LOLPE (100=total damage to plant; 0=no damage to plant) (Lolium perenne (LOLPE) [5]) | crop damage to winter wheat at 250 g/ha [6] | pest or weed control at 250 g/ha [7] | pest or weed control at 250 g/ha (Avena fatua (AVEFA) [8]) | Post-Emergence Activity AVEFA (100=total damage to plant; 0=no damage to plant) (Avena fatua (AVEFA) [9]) | pest or weed control at 250 g/ha (Lolium perenne (LOLPE) [10]) | Post-Emergence Activity DIGSA (100=total damage to plant; 0=no damage to plant) [11] | pest or weed control at 250 g/ha (Lolium perenne (LOLPE) [12]) | pest or weed control at 250 g/ha [13] | pest or weed control at 250 g/ha [14] | Post-Emergence Activity ECHCG (100=total damage to plant; 0=no damage to plant) [15] |
| --- | --- | --- | --- | --- | --- | --- | --- | --- | --- | --- | --- | --- | --- | --- | --- | --- |
| Cc1cc(C)c(C2=C(OC(=O)C(C)(C)C)CC(CC3CCOCC3)C2=O)c(C)c1 (centres unmarked) [Compound P5] | 100% | 100 | 80 | 90% | 30 | 100 | 60% | 100% | 80% | 100 | 100% | 70 | 100% | 100% | 100% | 100 |
| Cc1cc(C)c(C2C(=O)CC(CC3CCOC3)C2=O)c(C)c1 (centres unmarked) [Compound T5] | 100% | 100 | 30 | 90% | 20 | 100 | 80% | 100% | 80% | 80 | 100% | 50 | 100% | 100% | 100% | 80 |
| Cc1cc(C)c(C2C(=O)CC(CC3CCOCC3)C2=O)c(C)c1 (centres unmarked) [Compound T4] | 100% | 100 | 90 | 100% | 40 | 100 | 70% | 100% | 90% | 90 | 100% | 90 | 100% | 100% | 100% | 100 |
| Cc1cc(C)c(C2C(=O)C/C(=C\C3CCOCC3)C2=O)c(C)c1 (centres unmarked) [Compound T8] | 100% | 100 | 100 | 100% | 80 | 100 | 90% | 100% | 100% | 90 | 100% | 80 | 100% | 100% | 100% | 100 |
| Cc1cc(C)c(C2C(=O)CC(CC3COCCO3)C2=O)c(C)c1 (centres unmarked) [Compound T40] | 100% | – | – | 90% | 10 | – | 60% | 100% | 80% | – | 100% | – | 100% | 100% | 80% | – |
| CCc1cc(C)cc(CC)c1C1C(=O)C(CC2CCOCC2)C(CC2CCOCC2)C1=O (centres unmarked) [Compound T12] | 100% | – | – | 100% | 60 | – | 70% | 100% | 100% | – | 100% | – | 100% | 100% | 100% | – |
| Cc1cc(-c2ccccc2)cc(C)c1C1C(=O)CC(CC2CCOCC2)C1=O (centres unmarked) [Compound T67] | 100% | – | – | 100% | 30 | – | 70% | 90% | 90% | – | 100% | – | 100% | 100% | 90% | – |
| Cc1cc(C)c(C2C(=O)CC(CC3CCN(C(=O)c4ccc(F)cc4)CC3)C2=O)c(C)c1 (centres unmarked) [Compound T75] | 90% | – | – | 100% | 50 | – | 60% | 30% | 70% | – | 100% | – | 80% | 70% | 90% | – |
